Here are results for 24 compounds from US11834453B2, “Substituted pyrimido[5,4-d]pyrimidines as HER2 inhibitors” (Array BioPharma Inc., priority 2020, dated 2023).

Assay [1] concerns the target ErbB2 insYVMA (HER2-YVMA, SEQ ID NO: 2) (Homo sapiens, UniProt P04626, INS775YVMA/P1170A). Briefly: biochemical. The following applies: ErbB2 insYVMA enzyme assay; read-out: Assay 1 IC50.
In another assay the target is ErbB2 WT (Homo sapiens (Human), UniProt P04626). The assay can be described thus: ErbB enzyme assay (CisBio HTRF KinEASE-TK), Assay 2. In kind it is biochemical. The gist of the method:
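ErbB2 phosphorylates 250 nM biotin-TK substrate at 1 mM ATP in 25 mM HEPES pH 7.4, 10 mM MgCl2, 0.01% Triton X-100 and 2% DMSO, for 30 min at 22 °C. Product is detected by HTRF with Sa-XL665 and TK-Ab-Cryptate. Percent of control is set by DMSO-only wells and pre-quenched wells.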

For the next assay, the target named is EGFR (Homo sapiens (Human), UniProt P00533). The assay can be described thus: ErbB enzyme assay (CisBio HTRF KinEASE-TK), Assay 3. In kind it is biochemical. The gist of the method:
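HTRF KinEASE-TK assay: kinase with 250 nM biotinylated TK-substrate and 1 mM ATP in 25 mM HEPES pH 7.4, 10 mM MgCl2, 0.01% Triton X-100, 2% DMSO, 30 min at 22 °C. Quenched with Sa-XL665/TK-Ab-Cryptate, read after 1 h. IC50 from 4-parameter fit of percent of control.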

Assay [2] concerns the target ErbB2 with Exon 20 YVMA insertion (HER2-YVMA) (Homo sapiens (Human), UniProt P04626, INS775YVMA). The assay can be described thus: Cellular phosphorylation assay, constitutive ErbB2 phosphorylation (Y1196) in engineered NIH 3T3 cells, Assay 4. In kind it is cell-based. In outline: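 Engineered NIH 3T3 cells expressing HER2-YVMA treated with compounds 1 h at 37 °C, then formaldehyde-fixed and methanol-permeabilized. pErbB2 Y1196 detected by in-cell infrared immunofluorescence, normalized to GAPDH. IC50 from the normalized curves.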

Another assay has as its target EGFR wild type (EGFR WT) (Homo sapiens (Human), UniProt P00533). The assay can be described thus: Cellular phosphorylation assay, EGF-stimulated EGFR phosphorylation in engineered NIH 3T3 cells, Phospho-EGFR DuoSet IC ELISA, Assay 5. In kind it is cell-based. In outline: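 NIH 3T3 cells expressing EGFR WT (20,000/well, attached overnight) were exposed to serially diluted compound for 1 h at 37 °C, then stimulated with 100 ng/ml rEGF for 10 min. Phospho-EGFR in lysates measured by sandwich ELISA optical density; IC50 from curves.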

Chain of ErbB2 with Exon 20 YVMA insertion (HER2-YVMA) (P04626 other isoform, or with tags, fused parts or gaps ins YVMA behind 775): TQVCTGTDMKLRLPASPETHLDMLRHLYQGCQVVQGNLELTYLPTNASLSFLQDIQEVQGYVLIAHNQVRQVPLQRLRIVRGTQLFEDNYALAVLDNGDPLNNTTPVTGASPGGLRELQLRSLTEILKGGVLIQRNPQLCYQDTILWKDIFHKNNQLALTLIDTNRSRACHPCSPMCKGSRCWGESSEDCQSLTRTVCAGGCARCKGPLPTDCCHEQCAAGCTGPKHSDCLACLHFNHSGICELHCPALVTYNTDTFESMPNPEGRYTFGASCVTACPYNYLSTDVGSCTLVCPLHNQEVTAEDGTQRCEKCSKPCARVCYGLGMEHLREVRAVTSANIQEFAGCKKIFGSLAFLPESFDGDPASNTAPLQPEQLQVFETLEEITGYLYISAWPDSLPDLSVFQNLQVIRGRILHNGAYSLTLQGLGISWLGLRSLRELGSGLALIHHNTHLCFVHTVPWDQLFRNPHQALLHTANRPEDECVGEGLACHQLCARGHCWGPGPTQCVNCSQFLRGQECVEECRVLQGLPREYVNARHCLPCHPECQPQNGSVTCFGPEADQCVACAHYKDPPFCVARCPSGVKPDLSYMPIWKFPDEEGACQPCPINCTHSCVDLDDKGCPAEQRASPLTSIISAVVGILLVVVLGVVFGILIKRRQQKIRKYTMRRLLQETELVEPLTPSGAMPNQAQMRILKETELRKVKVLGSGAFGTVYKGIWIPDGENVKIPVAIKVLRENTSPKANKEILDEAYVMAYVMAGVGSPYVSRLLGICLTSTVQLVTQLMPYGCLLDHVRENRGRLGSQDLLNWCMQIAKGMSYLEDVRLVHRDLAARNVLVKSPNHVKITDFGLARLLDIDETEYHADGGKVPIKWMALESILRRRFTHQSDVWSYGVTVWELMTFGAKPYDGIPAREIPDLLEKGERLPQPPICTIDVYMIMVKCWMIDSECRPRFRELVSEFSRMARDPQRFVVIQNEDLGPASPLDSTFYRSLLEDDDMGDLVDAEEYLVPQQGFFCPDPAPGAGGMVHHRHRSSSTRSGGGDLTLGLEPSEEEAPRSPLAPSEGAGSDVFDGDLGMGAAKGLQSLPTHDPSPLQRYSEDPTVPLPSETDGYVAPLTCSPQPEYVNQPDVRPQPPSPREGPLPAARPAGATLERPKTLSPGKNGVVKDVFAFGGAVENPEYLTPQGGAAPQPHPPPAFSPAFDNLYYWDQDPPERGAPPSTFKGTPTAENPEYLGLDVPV
Chain of ErbB2 insYVMA (HER2-YVMA, SEQ ID NO: 2) (P04626 with tags, fused parts or gaps INS775YVMA/P1170A limits assumed): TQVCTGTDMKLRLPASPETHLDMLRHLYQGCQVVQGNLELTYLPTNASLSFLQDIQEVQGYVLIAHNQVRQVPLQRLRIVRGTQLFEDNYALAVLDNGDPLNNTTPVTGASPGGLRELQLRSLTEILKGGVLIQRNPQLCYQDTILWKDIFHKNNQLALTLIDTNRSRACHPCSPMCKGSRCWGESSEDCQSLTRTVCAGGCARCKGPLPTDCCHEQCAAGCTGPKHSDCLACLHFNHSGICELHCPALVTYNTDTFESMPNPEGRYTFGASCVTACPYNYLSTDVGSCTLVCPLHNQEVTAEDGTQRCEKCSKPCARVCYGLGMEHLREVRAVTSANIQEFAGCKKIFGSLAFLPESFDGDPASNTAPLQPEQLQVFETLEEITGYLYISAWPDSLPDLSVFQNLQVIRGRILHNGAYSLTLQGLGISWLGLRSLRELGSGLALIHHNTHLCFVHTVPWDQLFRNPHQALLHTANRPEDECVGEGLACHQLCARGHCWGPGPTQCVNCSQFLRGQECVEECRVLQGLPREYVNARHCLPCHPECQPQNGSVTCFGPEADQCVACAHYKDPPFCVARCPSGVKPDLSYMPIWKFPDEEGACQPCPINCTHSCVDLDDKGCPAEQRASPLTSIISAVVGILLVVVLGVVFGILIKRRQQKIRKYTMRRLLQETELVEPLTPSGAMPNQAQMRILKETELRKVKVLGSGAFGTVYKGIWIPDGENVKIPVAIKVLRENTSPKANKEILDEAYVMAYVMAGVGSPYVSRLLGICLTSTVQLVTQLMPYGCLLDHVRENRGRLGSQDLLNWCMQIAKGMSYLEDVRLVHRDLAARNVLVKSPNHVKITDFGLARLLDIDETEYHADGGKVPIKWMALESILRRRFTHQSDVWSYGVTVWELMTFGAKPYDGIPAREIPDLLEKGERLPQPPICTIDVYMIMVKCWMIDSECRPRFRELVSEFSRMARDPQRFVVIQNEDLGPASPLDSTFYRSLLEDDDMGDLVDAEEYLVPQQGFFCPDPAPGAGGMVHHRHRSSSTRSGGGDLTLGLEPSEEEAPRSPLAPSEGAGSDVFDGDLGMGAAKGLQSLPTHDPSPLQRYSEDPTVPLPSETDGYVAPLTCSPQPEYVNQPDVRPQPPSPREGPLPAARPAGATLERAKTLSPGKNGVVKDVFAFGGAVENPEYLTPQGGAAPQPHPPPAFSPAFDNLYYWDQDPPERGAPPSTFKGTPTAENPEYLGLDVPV
Chain of ErbB2 WT (P04626 23-1255): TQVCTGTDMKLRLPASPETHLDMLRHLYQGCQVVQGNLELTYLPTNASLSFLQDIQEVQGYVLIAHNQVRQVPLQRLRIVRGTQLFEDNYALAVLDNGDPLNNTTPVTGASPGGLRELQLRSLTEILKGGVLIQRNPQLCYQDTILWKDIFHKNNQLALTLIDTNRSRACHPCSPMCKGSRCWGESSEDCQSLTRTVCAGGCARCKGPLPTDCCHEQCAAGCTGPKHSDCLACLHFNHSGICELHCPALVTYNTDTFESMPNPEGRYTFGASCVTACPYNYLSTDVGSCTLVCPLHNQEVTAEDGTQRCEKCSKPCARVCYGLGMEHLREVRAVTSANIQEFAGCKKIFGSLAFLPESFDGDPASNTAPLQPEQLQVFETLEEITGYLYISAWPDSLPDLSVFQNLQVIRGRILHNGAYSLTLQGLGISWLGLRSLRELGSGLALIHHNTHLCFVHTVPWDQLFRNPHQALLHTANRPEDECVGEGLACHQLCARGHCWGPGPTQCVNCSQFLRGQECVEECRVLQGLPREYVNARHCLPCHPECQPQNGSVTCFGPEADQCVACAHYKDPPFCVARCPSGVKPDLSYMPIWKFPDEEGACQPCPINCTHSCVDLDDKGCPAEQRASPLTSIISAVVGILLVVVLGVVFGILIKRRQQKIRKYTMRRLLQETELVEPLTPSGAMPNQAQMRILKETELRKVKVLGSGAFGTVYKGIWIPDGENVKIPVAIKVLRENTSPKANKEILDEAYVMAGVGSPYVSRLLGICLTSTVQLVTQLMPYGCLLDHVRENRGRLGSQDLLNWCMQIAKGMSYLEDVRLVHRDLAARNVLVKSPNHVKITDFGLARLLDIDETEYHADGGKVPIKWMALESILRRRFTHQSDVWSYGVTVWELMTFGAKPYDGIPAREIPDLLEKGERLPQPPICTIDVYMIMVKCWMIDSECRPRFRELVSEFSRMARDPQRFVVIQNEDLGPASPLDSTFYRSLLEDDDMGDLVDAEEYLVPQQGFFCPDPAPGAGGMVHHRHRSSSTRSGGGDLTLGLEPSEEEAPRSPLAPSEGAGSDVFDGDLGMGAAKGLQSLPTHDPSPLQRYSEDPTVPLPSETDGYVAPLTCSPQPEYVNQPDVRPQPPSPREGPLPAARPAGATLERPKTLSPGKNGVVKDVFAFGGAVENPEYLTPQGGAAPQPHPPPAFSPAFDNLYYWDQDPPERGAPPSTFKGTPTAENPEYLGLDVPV
Chain of EGFR wild type (EGFR WT) (P00533 25-1210): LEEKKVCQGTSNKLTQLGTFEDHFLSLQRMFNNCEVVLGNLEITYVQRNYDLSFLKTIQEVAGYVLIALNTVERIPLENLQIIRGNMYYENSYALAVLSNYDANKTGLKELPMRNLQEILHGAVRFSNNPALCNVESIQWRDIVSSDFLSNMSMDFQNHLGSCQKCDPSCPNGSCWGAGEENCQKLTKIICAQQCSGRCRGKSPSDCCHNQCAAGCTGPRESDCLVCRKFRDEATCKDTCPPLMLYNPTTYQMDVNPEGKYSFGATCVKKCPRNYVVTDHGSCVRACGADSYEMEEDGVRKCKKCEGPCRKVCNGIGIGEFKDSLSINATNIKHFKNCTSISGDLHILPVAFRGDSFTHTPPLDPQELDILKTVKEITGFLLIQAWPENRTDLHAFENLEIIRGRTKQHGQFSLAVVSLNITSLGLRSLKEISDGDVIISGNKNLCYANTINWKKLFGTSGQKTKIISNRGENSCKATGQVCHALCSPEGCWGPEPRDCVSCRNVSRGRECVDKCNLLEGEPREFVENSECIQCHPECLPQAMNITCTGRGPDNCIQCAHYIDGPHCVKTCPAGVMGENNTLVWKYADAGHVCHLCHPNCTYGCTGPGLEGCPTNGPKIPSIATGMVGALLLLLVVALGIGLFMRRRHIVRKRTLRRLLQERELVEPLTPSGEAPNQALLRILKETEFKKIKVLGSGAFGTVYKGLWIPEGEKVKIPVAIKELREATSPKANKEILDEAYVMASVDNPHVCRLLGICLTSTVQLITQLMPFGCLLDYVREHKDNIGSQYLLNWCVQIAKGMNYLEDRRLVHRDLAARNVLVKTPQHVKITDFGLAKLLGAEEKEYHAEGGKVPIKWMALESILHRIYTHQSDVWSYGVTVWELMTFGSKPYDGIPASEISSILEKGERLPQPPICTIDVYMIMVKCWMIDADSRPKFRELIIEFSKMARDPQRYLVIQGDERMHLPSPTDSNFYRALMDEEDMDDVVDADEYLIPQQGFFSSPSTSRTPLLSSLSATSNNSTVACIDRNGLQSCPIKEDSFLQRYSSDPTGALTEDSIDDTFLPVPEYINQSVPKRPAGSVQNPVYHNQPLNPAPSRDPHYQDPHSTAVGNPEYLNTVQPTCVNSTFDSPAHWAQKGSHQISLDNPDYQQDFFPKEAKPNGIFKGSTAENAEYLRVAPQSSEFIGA

Turning to `Clc1cc(Nc2ncnc3cnc(N4CCO[C@H]5C[C@H]54)nc23)ccc1Oc1ccn2ncnc2c1` [Example 384], the half-maximal inhibitory concentration (IC50) was 0.0136 µM in assay [1]; 0.043 µM at ErbB2 WT; 4.31 µM against EGFR; 0.0915 µM in assay [2]; at least 5 µM against EGFR wild type (EGFR WT).

For `Cc1cc(Nc2ncnc3cnc(N(C)CC4(O)CC4)nc23)ccc1Oc1ccn2ncnc2c1` [Example 385], the IC50 in assay [1] is 0.0185 µM; against ErbB2 WT it was 0.04 µM; against EGFR, 5.15 µM; in assay [2] it was 0.183 µM; at EGFR wild type (EGFR WT), at least 5 µM.

`Cc1cc(Nc2ncnc3cnc(N4CCC[C@@]5(CCO5)C4)nc23)ccc1Oc1ccc2c(c1)ncn2C` [Example 386]: the IC50 in assay [1] is 0.0821 µM; against ErbB2 WT, 0.0594 µM; at EGFR, 6.99 µM; in assay [2] it was 0.0167 µM; on EGFR wild type (EGFR WT), at least 5 µM.

`N#C[C@@H]1CCN(c2ncc3ncnc(Nc4ccc(Oc5ccn6ncnc6c5)c(Cl)c4)c3n2)C1` [Example 387]: the IC50 in assay [1] was 0.07 µM; on ErbB2 WT it was 0.132 µM; on EGFR, at least 10 µM; in assay [2], 0.163 µM; against EGFR wild type (EGFR WT) it was at least 5 µM.

`Clc1cc(Nc2ncnc3cnc(N4C[C@H]5CC[C@@H]4CO5)nc23)ccc1Oc1ccn2ncnc2c1` [Example 389]: the IC50 in assay [1] is 0.0167 µM; against ErbB2 WT, 0.0122 µM; at EGFR, at least 10 µM; in assay [2] it was 0.127 µM; at EGFR wild type (EGFR WT) it was at least 5 µM.

As to `Cc1cc(Nc2ncnc3cnc(N4CC[C@H]4C(F)F)nc23)ccc1Oc1ccn2ncnc2c1` [Example 390], the half-maximal inhibitory concentration (IC50) in assay [1] is 0.0248 µM; on ErbB2 WT it was 0.0446 µM; on EGFR it was 3.98 µM; in assay [2], 0.108 µM; on EGFR wild type (EGFR WT) it was at least 5 µM.

As for `Cc1cc(Nc2ncnc3cnc(N4C[C@]5(CCOC5)CC4=O)nc23)ccc1Oc1ccc2c(c1)ncn2C` [Example 391], the IC50 was 0.0943 µM in assay [1]; 0.298 µM against ErbB2 WT; at least 10 µM against EGFR; 0.143 µM in assay [2]; at least 5 µM at EGFR wild type (EGFR WT).

Regarding `Cc1c(Oc2ccc3c(c2)ncn3C)ccc(Nc2ncnc3cnc(N4CC[C@@H](O)C4)nc23)c1F` [Example 392], the IC50 was 0.0166 µM in assay [1]; 0.0146 µM on ErbB2 WT; at least 10 µM on EGFR; 0.0799 µM in assay [2]; at least 5 µM at EGFR wild type (EGFR WT).

As for `Cn1cnc2cc(Oc3ccc(Nc4ncnc5cnc(N6C[C@@H]7[C@@H](C#N)[C@@H]7C6)nc45)cc3Cl)ccc21` [Example 393], the IC50 in assay [1] was 0.0633 µM; against ErbB2 WT it was 0.237 µM; against EGFR, at least 10 µM; in assay [2], 0.0432 µM; on EGFR wild type (EGFR WT), at least 5 µM.

For the compound `CO[C@@H]1CCN(c2ncc3ncnc(Nc4ccc(Oc5ccn6ncnc6c5)c(C)c4)c3n2)C1` [Example 395], the IC50 in assay [1] is 0.0246 µM; against ErbB2 WT it was 0.0576 µM; on EGFR, at least 10 µM; in assay [2], 0.898 µM; against EGFR wild type (EGFR WT), at least 5 µM.

As to `CN(C)c1ncc2ncnc(Nc3ccc(Oc4ccn5ncnc5c4)c(Cl)c3)c2n1` [Example 396], the IC50 was 0.0049 µM in assay [1]; 0.0096 µM at ErbB2 WT; at least 10 µM against EGFR; 0.0239 µM in assay [2]; at least 5 µM against EGFR wild type (EGFR WT).

In the case of `Clc1cc(Nc2ncnc3cnc(N4CCOC5(CC5)C4)nc23)ccc1Oc1ccn2ncnc2c1` [Example 398], the IC50 in assay [1] is 0.0221 µM; on ErbB2 WT, 0.0365 µM; at EGFR it was 7.77 µM; in assay [2], 0.0705 µM; against EGFR wild type (EGFR WT), at least 5 µM.

For `Clc1cc(Nc2ncnc3cnc(N4C[C@@H]5[C@H](C4)[C@@H]4CC[C@H]5O4)nc23)ccc1Oc1ccn2ncnc2c1` [Example 399], the IC50 in assay [1] is 0.0282 µM; against ErbB2 WT, 0.029 µM; on EGFR, at least 10 µM; in assay [2], 0.192 µM; at EGFR wild type (EGFR WT), at least 5 µM.

Consider `Cc1cc(Nc2ncnc3cnc(N4CC[C@@H](C(F)F)C4)nc23)ccc1Oc1ccn2ncnc2c1` [Example 400], for which the IC50 in assay [1] was 0.0087 µM; against ErbB2 WT it was 0.0407 µM; at EGFR, 8.42 µM; in assay [2] it was 0.218 µM; against EGFR wild type (EGFR WT) it was at least 5 µM.

As for `Cc1cc(Nc2ncnc3cnc(N4C[C@@H]5[C@@H](C#N)[C@@H]5C4)nc23)ccc1Oc1ccc2c(c1)ncn2C` [Example 401], the IC50 in assay [1] was 0.149 µM; against ErbB2 WT, 0.161 µM; at EGFR it was at least 10 µM; in assay [2] it was 0.0248 µM; on EGFR wild type (EGFR WT), at least 5 µM.

On to `Cc1cc(Nc2ncnc3cnc(N(C)C4COC4)nc23)ccc1Oc1ccn2ncnc2c1` [Example 403], for which the concentration for half-maximal inhibition (IC50) was 0.0167 µM in assay [1]; 0.012 µM at ErbB2 WT; 6.63 µM on EGFR; 0.339 µM in assay [2]; at least 5 µM against EGFR wild type (EGFR WT).

On to `Cc1cc(Nc2ncnc3cnc(N4CC[C@@H](C#N)C4)nc23)ccc1Oc1ccn2ncnc2c1` [Example 404], for which the IC50 in assay [1] was 0.0228 µM; against ErbB2 WT, 0.037 µM; on EGFR, 7.55 µM; in assay [2], 0.182 µM; against EGFR wild type (EGFR WT) it was at least 5 µM.

In the case of `CN(CC(C)(C)O)c1ncc2ncnc(Nc3ccc(Oc4ccn5ncnc5c4)c(Cl)c3)c2n1` [Example 405], the IC50 in assay [1] is 0.0157 µM; against ErbB2 WT, 0.0303 µM; against EGFR it was 4.69 µM; in assay [2], 0.106 µM; on EGFR wild type (EGFR WT) it was at least 5 µM.

`N#CC[C@H]1CCN(c2ncc3ncnc(Nc4ccc(Oc5ccn6ncnc6c5)c(Cl)c4)c3n2)C1` [Example 406]: the IC50 in assay [1] is 0.0166 µM; on ErbB2 WT it was 0.0323 µM; on EGFR, 8.28 µM; in assay [2], 0.0636 µM; against EGFR wild type (EGFR WT) it was at least 5 µM.

On to `Cc1cc(Nc2ncnc3cnc(N4CCC[C@H]4C(C)(C)O)nc23)ccc1Oc1ccc2c(c1)ncn2C` [Example 408], for which the IC50 was 0.0326 µM in assay [1]; 0.0656 µM against ErbB2 WT; at least 10 µM against EGFR; 0.0421 µM in assay [2]; at least 5 µM at EGFR wild type (EGFR WT).

In the case of `Clc1cc(Nc2ncnc3cnc(N4CCOCC4)nc23)ccc1Oc1ccn2ncnc2c1` [Example 409], the concentration for half-maximal inhibition (IC50) in assay [1] is 0.0183 µM; against ErbB2 WT it was 0.0321 µM; at EGFR, 3.53 µM; in assay [2], 0.043 µM; on EGFR wild type (EGFR WT), at least 5 µM.

In the case of `FC(F)[C@H]1CCN1c1ncc2ncnc(Nc3ccc(Oc4ccn5ncnc5c4)c(Cl)c3)c2n1` [Example 410], the IC50 in assay [1] is 0.0147 µM; on ErbB2 WT it was 0.0423 µM; against EGFR, 6.3 µM; in assay [2] it was 0.208 µM; against EGFR wild type (EGFR WT) it was at least 5 µM.

`COC1CCN(c2ncc3ncnc(Nc4ccc(Oc5ccn6ncnc6c5)c(C)c4)c3n2)CC1` [Example 411]: the IC50 in assay [1] is 0.0263 µM; on ErbB2 WT it was 0.0562 µM; against EGFR, at least 10 µM; in assay [2], 0.604 µM; on EGFR wild type (EGFR WT), at least 5 µM.

For `Cc1cc(Nc2ncnc3cnc(N4CCOCC4)nc23)ccc1Oc1ccn2ncnc2c1` [Example 412], the IC50 in assay [1] was 0.0259 µM; at ErbB2 WT it was 0.0705 µM; against EGFR, at least 10 µM; in assay [2], 0.0697 µM; against EGFR wild type (EGFR WT) it was at least 5 µM.
